Source: US20250152553A1, “CARBAMOTHIOATE, AND CARBAMODITHIOATE DERIVATIVES OF MDMA, MDA OR ITS OPTICALLY ACTIVE (R)- OR (S)-MDMA AND MDA ISOMERS” (EmpathBio, Inc., priority 2023, published 2025)
In brackets after ≈: the same amount, converted by molar mass.

Legend:
[1] = Chemical stability in PBS pH 6.5; assay type: physicochemical; conditions: for half-life: PBS pH 6.5; for Remaining Percentage (%) 0 min: PBS pH 6.5, 0 min; for Remaining Percentage (%) 30 min: PBS pH 6.5, 30 min; for Remaining Percentage (%) 60 min: PBS pH 6.5, 60 min; for Remaining Percentage (%) 120 min: PBS pH 6.5, 120 min; for Remaining Percentage (%) 240 min: PBS pH 6.5, 240 min
[2] = Plasma stability in mouse plasma; assay type: in vitro ADME; conditions: for half-life at 1 μM: test concentration 1 μM
Solubility in FaSSIF = assay type: physicochemical; conditions: read-out: SOL (μM) FaSSIF

| Structure (SMILES) | half-life [1] [h] | Remaining Percentage (%) 0 min [1] [%] | Remaining Percentage (%) 30 min [1] [%] | Remaining Percentage (%) 60 min [1] [%] | Remaining Percentage (%) 120 min [1] [%] | Remaining Percentage (%) 240 min [1] [%] | Remaining Percentages (%) 0 min ([2]; 1 μM) [%] | Remaining Percentages (%) 15 min ([2]; 1 μM) [%] | Remaining Percentages (%) 30 min ([2]; 1 μM) [%] | Remaining Percentages (%) 60 min ([2]; 1 μM) [%] | Remaining Percentages (%) 120 min ([2]; 1 μM) [%] | half-life at 1 μM [2] [h] | solubility (Solubility in FaSSIF) [µM] | Remaining Percentages (%) 0 min ([2]; 5 μM) [%] | Remaining Percentages (%) 30 min ([2]; 5 μM) [%] | Remaining Percentages (%) 120 min ([2]; 5 μM) [%] | half-life at 5 μM ([2]; test concentration 5 μM (control)) [h] |
| --- | --- | --- | --- | --- | --- | --- | --- | --- | --- | --- | --- | --- | --- | --- | --- | --- | --- |
| CSC(=O)N(C)C(C)Cc1ccc2c(c1)OCO2 (stereo not shown) [Prodrug 5, S-methyl (1-(benzo[d][1,3]dioxol-5-yl)propan-2-yl)(methyl)carbamothioate] | > 17.1 | 100.00 | 91.67 | 104.03 | 96.42 | 91.92 | 100 | 100.78 | 98.96 | 100.78 | 94.52 | > 8.52 | 308 (≈ 82.3 µg/mL) |  |  |  |  |
| CSC(=S)N(C)C(C)Cc1ccc2c(c1)OCO2 (stereo not shown) [Prodrug 9, methyl (1-(benzo[d][1,3]dioxol-5-yl)propan-2-yl)(methyl)carbamodithioate] | > 17.1 | 100.00 | 97.22 | 96.84 | 107.55 | 89.55 | 100 | 101.32 | 96.64 | 98.79 | 97.14 | > 8.52 | 30.4 (≈ 8.63 µg/mL) |  |  |  |  |
| COC(=S)N(C)C(C)Cc1ccc2c(c1)OCO2 (stereo not shown) [Prodrug 1, O-methyl (1-(benzo[d][1,3]dioxol-5-yl)propan-2-yl)(methyl)carbamothioate] | > 17.1 | 100.00 | 95.62 | 102.35 | 93.11 | 106.73 | 100 | 108.17 | 96.20 | 103.37 | 100.00 | > 8.52 | 278 (≈ 74.4 µg/mL) |  |  |  |  |
| CCSC(=S)NC(C)Cc1ccc2c(c1)OCO2 (stereo not shown) [Prodrug 12, ethyl (1-(benzo[d][1,3]dioxol-5-yl)propan-2-yl)carbamodithioate] | > 17.1 | 100.00 | 102.94 | 99.30 | 104.13 | 100.98 | 100 | 101.19 | 92.04 | 92.28 | 89.25 | > 8.52 | 252 (≈ 71.3 µg/mL) |  |  |  |  |
| CSC(=O)NC(C)Cc1ccc2c(c1)OCO2 (stereo not shown) [Prodrug 6, S-methyl (1-(benzo[d][1,3]dioxol-5-yl)propan-2-yl)carbamothioate] | > 17.1 | 100.00 | 93.08 | 91.55 | 88.38 | 88.38 | 100 | 99.73 | 103.77 | 102.16 | 90.30 | > 8.52 | 293 (≈ 74.1 µg/mL) |  |  |  |  |
| CSC(=S)NC(C)Cc1ccc2c(c1)OCO2 (stereo not shown) [Prodrug 10, methyl (1-(benzo[d][1,3]dioxol-5-yl)propan-2-yl)carbamodithioate] | > 17.1 | 100.00 | 96.55 | 105.17 | 109.86 | 113.62 | 100 | 100.89 | 98.00 | 100.22 | 89.09 | > 8.52 | 306 (≈ 82.5 µg/mL) |  |  |  |  |
| CCSC(=O)NC(C)Cc1ccc2c(c1)OCO2 (stereo not shown) [Prodrug 8, S-ethyl (1-(benzo[d][1,3]dioxol-5-yl)propan-2-yl)carbamothioate] | > 17.1 | 100.00 | 113.02 | 100.82 | 102.82 | 114.28 | 100 | 110.30 | 106.34 | 105.81 | 101.19 | > 8.52 | 288 (≈ 77.1 µg/mL) |  |  |  |  |
| CCOC(=S)NC(C)Cc1ccc2c(c1)OCO2 (stereo not shown) [Prodrug 4, O-ethyl (1-(benzo[d][1,3]dioxol-5-yl)propan-2-yl)carbamothioate] | > 17.1 | 100.00 | 103.44 | 100.85 | 94.76 | 94.28 | 100 | 100.00 | 100.28 | 97.80 | 95.32 | > 8.52 | 60.3 (≈ 16.1 µg/mL) |  |  |  |  |
| O=C(O)Cc1ccccc1Nc1c(Cl)cccc1Cl [Diclofenac, reference compound] | 0.695 | 100.00 | 60.68 | 35.44 | 13.15 | 1.85 |  |  |  |  |  |  |  | 100 | 58.97 | 10.45 | 0.594 |
| CCSC(=S)N(C)C(C)Cc1ccc2c(c1)OCO2 (stereo not shown) [Prodrug 11, ethyl (1-(benzo[d][1,3]dioxol-5-yl)propan-2-yl)(methyl)carbamodithioate] | > 17.1 | 100.00 | 95.01 | 93.41 | 96.45 | 94.38 | 100 | 97.92 | 101.25 | 94.58 | 94.17 | > 8.52 | 63.7 (≈ 19 µg/mL) |  |  |  |  |
| CCOC(=S)N(C)C(C)Cc1ccc2c(c1)OCO2 (stereo not shown) [Prodrug 3, O-ethyl (1-(benzo[d][1,3]dioxol-5-yl)propan-2-yl)(methyl)carbamothioate] | > 17.1 | 100.00 | 100.73 | 95.33 | 99.99 | 91.16 | 100 | 106.31 | 97.30 | 97.75 | 96.85 | > 8.52 | 131 (≈ 36.9 µg/mL) |  |  |  |  |
| CCSC(=O)N(C)C(C)Cc1ccc2c(c1)OCO2 (stereo not shown) [Prodrug 7, S-ethyl (1-(benzo[d][1,3]dioxol-5-yl)propan-2-yl)(methyl)carbamothioate] | > 17.1 | 100.00 | 99.17 | 97.73 | 95.86 | 103.73 | 100 | 110.62 | 111.95 | 113.27 | 102.65 | > 8.52 | 291 (≈ 82 µg/mL) |  |  |  |  |
| COC(=S)NC(C)Cc1ccc2c(c1)OCO2 (stereo not shown) [Prodrug 2, O-methyl (1-(benzo[d][1,3]dioxol-5-yl)propan-2-yl)carbamothioate] | > 17.1 | 100.00 | 105.00 | 100.45 | 102.27 | 105.00 | 100 | 101.54 | 99.62 | 96.35 | 91.94 | > 8.52 | 279 (≈ 70.8 µg/mL) |  |  |  |  |
